Reference: ChEMBL document CHEMBL6120977, “Structure-Affinity-Pharmacokinetics Relationships of Novel 18F-Labeled 1,4-Diazepane Derivatives for Orexin 1 Receptor Imaging” (J Med Chem, 2024)

Experiments:
[1] = target: T1, Orexin/Hypocretin receptor type 1 (Homo sapiens, UniProt O43613); assay: Displacement of [125I]Orexin A from recombinant human OX1R expressed in CHO-S cells by radioligand competition binding assay; type: cell-based
T1 sequence (O43613 whole entry): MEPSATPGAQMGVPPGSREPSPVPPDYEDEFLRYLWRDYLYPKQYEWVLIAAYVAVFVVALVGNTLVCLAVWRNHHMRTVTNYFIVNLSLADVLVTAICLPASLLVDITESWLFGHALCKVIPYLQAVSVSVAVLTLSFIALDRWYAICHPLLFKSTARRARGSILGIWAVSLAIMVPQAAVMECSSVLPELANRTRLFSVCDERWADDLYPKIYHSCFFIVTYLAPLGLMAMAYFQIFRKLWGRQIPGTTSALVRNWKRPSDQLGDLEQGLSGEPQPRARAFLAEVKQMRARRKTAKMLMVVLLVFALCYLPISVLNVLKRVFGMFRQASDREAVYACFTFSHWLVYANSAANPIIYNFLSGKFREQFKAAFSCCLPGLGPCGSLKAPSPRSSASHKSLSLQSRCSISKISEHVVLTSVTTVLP

Orexin receptor type 2 = target: T2, Orexin receptor type 2 (Homo sapiens, UniProt O43614); assay: Displacement of [125I]Orexin A from recombinant human OX2R expressed in CHO-S cells by radioligand competition binding assay; type: cell-based
T2 sequence (O43614 whole entry): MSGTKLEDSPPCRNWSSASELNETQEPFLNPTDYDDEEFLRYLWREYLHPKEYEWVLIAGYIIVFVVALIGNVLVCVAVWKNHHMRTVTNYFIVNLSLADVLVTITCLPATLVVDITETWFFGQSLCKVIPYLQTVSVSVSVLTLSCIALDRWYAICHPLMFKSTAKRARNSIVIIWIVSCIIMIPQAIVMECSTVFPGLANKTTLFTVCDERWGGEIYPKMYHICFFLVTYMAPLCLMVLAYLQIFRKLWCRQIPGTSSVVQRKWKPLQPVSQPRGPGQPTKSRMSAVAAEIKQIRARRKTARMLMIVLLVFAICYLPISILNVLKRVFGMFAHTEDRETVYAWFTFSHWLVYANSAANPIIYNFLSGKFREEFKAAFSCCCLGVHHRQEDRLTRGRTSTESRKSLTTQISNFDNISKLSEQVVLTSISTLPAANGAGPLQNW

[2] = Biodistribution in male ddY mouse blood administered intravenously and measured at 2 mins postinjection by gamma counter analysis; type: ADME, organism-based; settings: in vivo, iv
[3] = Biodistribution in male ddY mouse blood administered intravenously and measured at 10 mins postinjection by gamma counter analysis; type: ADME, organism-based; settings: in vivo, iv
[4] = Biodistribution in male ddY mouse blood administered intravenously and measured at 30 mins postinjection by gamma counter analysis; type: ADME, organism-based; settings: in vivo, iv, 0.5 h
[5] = Biodistribution in male ddY mouse blood administered intravenously and measured at 60 mins postinjection by gamma counter analysis; type: ADME, organism-based; settings: in vivo, iv, 1 h
[6] = Biodistribution in male ddY mouse spleen administered intravenously and measured at 2 mins postinjection by gamma counter analysis; type: ADME, organism-based; settings: in vivo, iv
[7] = Biodistribution in male ddY mouse spleen administered intravenously and measured at 10 mins postinjection by gamma counter analysis; type: ADME, organism-based; settings: in vivo, iv
[8] = Biodistribution in male ddY mouse spleen administered intravenously and measured at 30 mins postinjection by gamma counter analysis; type: ADME, organism-based; settings: in vivo, iv, 0.5 h
[9] = Biodistribution in male ddY mouse spleen administered intravenously and measured at 60 mins postinjection by gamma counter analysis; type: ADME, organism-based; settings: in vivo, iv, 1 h
[10] = Biodistribution in male ddY mouse pancreas administered intravenously and measured at 2 mins postinjection by gamma counter analysis; type: ADME, organism-based; settings: in vivo, iv
[11] = Biodistribution in male ddY mouse pancreas administered intravenously and measured at 10 mins postinjection by gamma counter analysis; type: ADME, organism-based; settings: in vivo, iv
[12] = Biodistribution in male ddY mouse pancreas administered intravenously and measured at 30 mins postinjection by gamma counter analysis; type: ADME, organism-based; settings: in vivo, iv, 0.5 h
[13] = Biodistribution in male ddY mouse pancreas administered intravenously and measured at 60 mins postinjection by gamma counter analysis; type: ADME, organism-based; settings: in vivo, iv, 1 h
[14] = Biodistribution in male ddY mouse stomach administered intravenously and measured per organ at 2 mins postinjection by gamma counter analysis; type: ADME, organism-based; settings: in vivo, iv
[15] = Biodistribution in male ddY mouse stomach administered intravenously and measured per organ at 10 mins postinjection by gamma counter analysis; type: ADME, organism-based; settings: in vivo, iv
[16] = Biodistribution in male ddY mouse stomach administered intravenously and measured per organ at 30 mins postinjection by gamma counter analysis; type: ADME, organism-based; settings: in vivo, iv, 0.5 h
[17] = Biodistribution in male ddY mouse stomach administered intravenously and measured per organ at 60 mins postinjection by gamma counter analysis; type: ADME, organism-based; settings: in vivo, iv, 1 h
[18] = Biodistribution in male ddY mouse intestine administered intravenously and measured at 2 mins postinjection by gamma counter analysis; type: ADME, organism-based; settings: in vivo, iv
[19] = Biodistribution in male ddY mouse intestine administered intravenously and measured at 10 mins postinjection by gamma counter analysis; type: ADME, organism-based; settings: in vivo, iv
[20] = Biodistribution in male ddY mouse intestine administered intravenously and measured at 30 mins postinjection by gamma counter analysis; type: ADME, organism-based; settings: in vivo, iv, 0.5 h
[21] = Biodistribution in male ddY mouse intestine administered intravenously and measured at 60 mins postinjection by gamma counter analysis; type: ADME, organism-based; settings: in vivo, iv, 1 h
[22] = Biodistribution in male ddY mouse kidney administered intravenously and measured at 2 mins postinjection by gamma counter analysis; type: ADME, organism-based; settings: in vivo, iv
[23] = Biodistribution in male ddY mouse kidney administered intravenously and measured at 10 mins postinjection by gamma counter analysis; type: ADME, organism-based; settings: in vivo, iv
[24] = Biodistribution in male ddY mouse kidney administered intravenously and measured at 30 mins postinjection by gamma counter analysis; type: ADME, organism-based; settings: in vivo, iv, 0.5 h
[25] = Biodistribution in male ddY mouse kidney administered intravenously and measured at 60 mins postinjection by gamma counter analysis; type: ADME, organism-based; settings: in vivo, iv, 1 h
[26] = Biodistribution in male ddY mouse liver administered intravenously and measured at 2 mins postinjection by gamma counter analysis; type: ADME, organism-based; settings: in vivo, iv
[27] = Biodistribution in male ddY mouse liver administered intravenously and measured at 10 mins postinjection by gamma counter analysis; type: ADME, organism-based; settings: in vivo, iv
[28] = Biodistribution in male ddY mouse liver administered intravenously and measured at 30 mins postinjection by gamma counter analysis; type: ADME, organism-based; settings: in vivo, iv, 0.5 h
[29] = Biodistribution in male ddY mouse liver administered intravenously and measured at 60 mins postinjection by gamma counter analysis; type: ADME, organism-based; settings: in vivo, iv, 1 h
[30] = Biodistribution in male ddY mouse heart administered intravenously and measured at 2 mins postinjection by gamma counter analysis; type: ADME, organism-based; settings: in vivo, iv
[31] = Biodistribution in male ddY mouse heart administered intravenously and measured at 10 mins postinjection by gamma counter analysis; type: ADME, organism-based; settings: in vivo, iv
[32] = Biodistribution in male ddY mouse heart administered intravenously and measured at 30 mins postinjection by gamma counter analysis; type: ADME, organism-based; settings: in vivo, iv, 0.5 h
[33] = Biodistribution in male ddY mouse heart administered intravenously and measured at 60 mins postinjection by gamma counter analysis; type: ADME, organism-based; settings: in vivo, iv, 1 h
[34] = Biodistribution in male ddY mouse lung administered intravenously and measured at 2 mins postinjection by gamma counter analysis; type: ADME, organism-based; settings: in vivo, iv
[35] = Biodistribution in male ddY mouse lung administered intravenously and measured at 10 mins postinjection by gamma counter analysis; type: ADME, organism-based; settings: in vivo, iv
[36] = Biodistribution in male ddY mouse lung administered intravenously and measured at 30 mins postinjection by gamma counter analysis; type: ADME, organism-based; settings: in vivo, iv, 0.5 h
[37] = Biodistribution in male ddY mouse lung administered intravenously and measured at 60 mins postinjection by gamma counter analysis; type: ADME, organism-based; settings: in vivo, iv, 1 h
[38] = Biodistribution in male ddY mouse brain administered intravenously and measured at 2 mins postinjection by gamma counter analysis; type: ADME, organism-based; settings: in vivo, iv
[39] = Biodistribution in male ddY mouse brain administered intravenously and measured at 10 mins postinjection by gamma counter analysis; type: ADME, organism-based; settings: in vivo, iv
[40] = Biodistribution in male ddY mouse brain administered intravenously and measured at 30 mins postinjection by gamma counter analysis; type: ADME, organism-based; settings: in vivo, iv, 0.5 h
[41] = Biodistribution in male ddY mouse brain administered intravenously and measured at 60 mins postinjection by gamma counter analysis; type: ADME, organism-based; settings: in vivo, iv, 1 h
[42] = Biodistribution in male ddY mouse bone administered intravenously and measured at 2 mins postinjection by gamma counter analysis; type: ADME, organism-based, Bone element; settings: in vivo, iv
[43] = Biodistribution in male ddY mouse bone administered intravenously and measured at 10 mins postinjection by gamma counter analysis; type: ADME, organism-based, Bone element; settings: in vivo, iv
[44] = Biodistribution in male ddY mouse bone administered intravenously and measured at 30 mins postinjection by gamma counter analysis; type: ADME, organism-based, Bone element; settings: in vivo, iv, 0.5 h
[45] = Biodistribution in male ddY mouse bone administered intravenously and measured at 60 mins postinjection by gamma counter analysis; type: ADME, organism-based, Bone element; settings: in vivo, iv, 1 h
[46] = Drug uptake in male ddY mouse hypothalamus at 407 kBq, iv measured for 5 to 10 mins by PET/CT imaging analysis; type: ADME, organism-based; settings: in vivo, time 5-10 min
[47] = Drug uptake in male ddY mouse brain at 41 kBq, iv pretreated with BTF for 10 mins followed by compound administration and measured after 10 mins by gamma counter analysis; type: ADME, organism-based; settings: in vivo
[48] = Drug uptake in male ddY mouse locus ceruleus at 407 kBq, iv measured for 5 to 10 mins by PET/CT imaging analysis; type: ADME, organism-based; settings: in vivo, time 5-10 min
[49] = Drug accumulation in male CD Sprague-Dawley rat cortex assessed as increase in radioactivity at 40.1 kBq/ml incubated for 1 hrs in presence of BTF by autoradiography analysis; type: ADME, tissue-based
[50] = Drug accumulation in male CD Sprague-Dawley rat hypothalamus assessed as increase in radioactivity at 40.1 kBq/ml incubated for 1 hrs in presence of BTF by autoradiography analysis; type: ADME, tissue-based
[51] = Drug accumulation in male CD Sprague-Dawley rat amygdala assessed as increase in radioactivity at 40.1 kBq/ml incubated for 1 hrs in presence of BTF by autoradiography analysis; type: ADME, tissue-based
[52] = Apparent permeability in pig LLC-PK1 cells; type: ADME, cell-based, Sus scrofa

Structure (SMILES): COc1ccnc(N2CCC3(CCN(Cc4cn([11CH3])c5ccccc45)C(=O)C3)CC2)n1
- IC50 [1]: 253 nM
- IC50 (Orexin receptor type 2): 1410 nM

Structure (SMILES): C[C@H]1CN(c2nc3ccccc3s2)CCCN1C(=O)c1cc([18F])ccc1-n1nccn1
- Drug uptake [2]: 6.02 % ID/g
- Drug uptake [3]: 3.2 % ID/g
- Drug uptake [4]: 1.74 % ID/g
- Drug uptake [5]: 0.64 % ID/g
- Drug uptake [6]: 3.26 % ID/g
- Drug uptake [7]: 1.87 % ID/g
- Drug uptake [8]: 0.66 % ID/g
- Drug uptake [9]: 0.29 % ID/g
- Drug uptake [10]: 7.16 % ID/g
- Drug uptake [11]: 3.1 % ID/g
- Drug uptake [12]: 0.92 % ID/g
- Drug uptake [13]: 0.61 % ID/g
- Drug uptake [14]: 1.4 %ID
- Drug uptake [15]: 2.16 %ID
- Drug uptake [16]: 2.39 %ID
- Drug uptake [17]: 1.05 %ID
- Drug uptake [18]: 4.74 % ID/g
- Drug uptake [19]: 15.7 % ID/g
- Drug uptake [20]: 28 % ID/g
- Drug uptake [21]: 34.5 % ID/g
- Drug uptake [22]: 9.76 % ID/g
- Drug uptake [23]: 4.99 % ID/g
- Drug uptake [24]: 3.99 % ID/g
- Drug uptake [25]: 1.84 % ID/g
- Drug uptake [26]: 16.2 % ID/g
- Drug uptake [27]: 28.6 % ID/g
- Drug uptake [28]: 17 % ID/g
- Drug uptake [29]: 10.8 % ID/g
- Drug uptake [30]: 7.48 % ID/g
- Drug uptake [31]: 3.02 % ID/g
- Drug uptake [32]: 1.51 % ID/g
- Drug uptake [33]: 0.54 % ID/g
- Drug uptake [34]: 8.48 % ID/g
- Drug uptake [35]: 4.13 % ID/g
- Drug uptake [36]: 2.2 % ID/g
- Drug uptake [37]: 1.17 % ID/g
- Drug uptake [38]: 2.98 % ID/g
- Drug uptake [39]: 0.82 % ID/g
- Drug uptake [40]: 0.17 % ID/g
- Drug uptake [41]: 0.07 % ID/g
- Drug uptake [42]: 2.69 % ID/g
- Drug uptake [43]: 1.4 % ID/g
- Drug uptake [44]: 1.77 % ID/g
- Drug uptake [45]: 1.87 % ID/g
- Drug uptake [46]: Active
- Drug uptake [47]: Not_active
- Drug uptake [48]: Active
- Drug uptake [49]: Not_active
- Drug uptake [50]: Not_active
- Drug uptake [51]: Not_active

Structure (SMILES): Cc1ccc(-n2nccn2)c(C(=O)N2CCN(c3nc4cc(Cl)ccc4o3)CC[C@H]2C)c1 [SUVOREXANT]
- Papp [52]: 34.6 ×10⁻⁶ cm/s
